Laboratory results taken from US20260115170A1, “Method of Ameliorating a Symptom or a Disease in a Human Caused by Fungus” (ISHIHARA SANGYO KAISHA, LTD., priority 2020, published 2026).
In brackets after ≈: the same amount, converted by molar mass.

Assays:
Assay type in all cases: cell-based
[1] = test system: Trichophyton rubrum (ATCCMYA4607); experiment: Test Example 5 antifungal activity test, minimum fungicidal concentration (MFC100) by treatment time
Method: (§1) Test Microbial Strains: Trichophyton rubrum (ATCCMYA4607), and Microsporum canis (IFM63627)
(§2) Trichophyton rubrum was cultured in a Sabouraud medium and Microsporum canis was cultured in a 1/10 Sabouraud medium, at 32° C. for 168 hours to form spores. For Trichophyton rubrum, hyphae were peeled off from the surface of the medium and recovered in a tube, physiological saline (Otsuka Normal Saline; containing 9 g of sodium chloride in 1000 mL) was added, these were wholly admixed using a disposable loop (type 1 (1 μL)) for dispersion, and a spore suspension containing the hyphae was recovered. For Microsporum canis, 10 mL of physiological saline was added directly onto the medium, and the surface was rubbed using a disposable loop to recover a spore suspension containing hyphae. The spore suspensions containing the hyphae of Trichophyton rubrum and Microsporum canis, respectively, were filtered through a cell strainer (\40 μm). The spores were recovered from the filtrate by centrifugation (3500 rpm, 5 minutes) and washed twice with physiological saline, and then a spore suspension was prepared (1×10^7 spores/mL). 10 μL of the spore suspension was inoculated into 90 μL of physiological saline to which test compound dissolved in DMSO was added to have a predetermined concentration. Every time a predetermined time elapsed, 10 μL of a test liquid containing the spores was collected, the spores were recovered by centrifugation (3500 rpm, 5 minutes) and washed twice with physiological saline, and then a 10 μL spore suspension was prepared. The 10 μL spore suspension was spotted onto a Sabouraud medium and subjected to culturing at 32° C. for 72 hours, the presence or absence of colony growth was investigated, and the minimum fungicidal concentration (MFC100) was determined.

[2] = test system: Microsporum canis (IFM63627); experiment: as above
Method: as §1, §2

[3] = test system: Trichophyton rubrum (ATCCMYA4607); experiment: Test Example 4 antifungal activity test, minimum inhibitory concentration (MIC100); conditions: Sabouraud medium, 32° C. for 72 hours
Method: as §1
(§3) The antifungal activity was studied by partially modifying the method of Test Example 2. Trichophyton rubrum was cultured in a Sabouraud medium and Microsporum canis was cultured in a 1/10 Sabouraud medium, at 32° C. for 168 hours to form spores. For Trichophyton rubrum, hyphae were peeled off from the surface of the medium and recovered in a tube, physiological saline (Otsuka Normal Saline; containing 9 g of sodium chloride in 1000 mL) was added, these were wholly admixed using a disposable loop (type 1 (1 μL)) for dispersion, and a spore suspension containing the hyphae was recovered. […] The spore suspensions containing the hyphae of Trichophyton rubrum and Microsporum canis, respectively, were filtered through a cell strainer ((40 μm). The spores were recovered from the filtrate by centrifugation (3500 rpm, 5 minutes) and washed twice with physiological saline, and then a spore suspension was prepared (1×10^7 spores/mL). 10 μL of the spore suspension was inoculated into a Sabouraud medium to which the test compound dissolved in DMSO was added to have a predetermined concentration. Trichophyton rubrum, Microsporum canis was cultured at 32° C. for 72 hours, then the presence or absence of colony growth was investigated, and the minimum inhibitory concentration (MIC100) was determined.

[4] = test system: Microsporum canis (IFM63627); experiment: as above; conditions: Sabouraud medium, 32° C. for 72 hours
Method: as §1, §3

MIC [3]: 5 µg/mL (≈ 19.8 µM)
MIC [4]: 5 µg/mL (≈ 19.8 µM)
SMILES: Cc1ccc(-c2nc(C#N)[nH]c2Cl)cc1Cl [Compound No. 6, 5-Chloro-4-(3-chloro-4-methylphenyl)-1H-imidazole-2-carbonitrile]
MFC ([1]; Treatment time 1 Hour): 50 µg/mL (≈ 198 µM)
MFC ([1]; Treatment time 48 Hours): 10 µg/mL (≈ 39.7 µM)
MFC ([1]; Treatment time 72 Hours): 5 µg/mL (≈ 19.8 µM)
MFC ([2]; Treatment time 24 Hours): 50 µg/mL (≈ 198 µM)
MFC ([2]; Treatment time 96 Hours): 10 µg/mL (≈ 39.7 µM)
